From ChEMBL document CHEMBL2034838, “Quinazolino-benzothiazoles: fused pharmacophores as anticonvulsant agents” (Eur J Med Chem, 2012) come the findings set out here.

Structures are written as SMILES.

Series [1] is filed under the species Mus musculus. In words: Neurotoxicity in Swiss albino mouse by rotarod test. The series is classed as toxicity, organism-based. The note with it: in vivo.
Series [2] has as its system Mus musculus. As to the kind of experiment: Hepatotoxicity in Swiss albino mouse assessed as change in liver alkaline phosphatase level at 25 mg/kg/day for 15 days. The series is classed as toxicity, organism-based. The note with it: in vivo, 360 h.
For series [3], the system named is Mus musculus. In words: Hepatotoxicity in Swiss albino mouse assessed as change in liver SGPT level at 25 mg/kg/day for 15 days. The series is classed as toxicity, organism-based. The note with it: in vivo, 360 h.
Series [4] concerns Mus musculus. As to the kind of experiment: Anticonvulsant activity in Swiss albino mouse assessed as decrease in time of subcutaneous PTZ-induced clonic hind leg extension administered as ip at equimolar dose of diazepam 30 mins before subcutaneous PTZ challenge measured after 0.5 hrs (reference value: 76.80 +/- 2.41 sec). Format: functional, Hindlimb.
The subject of series [5] is Mus musculus. In words: Hepatotoxicity in Swiss albino mouse assessed as change in liver total protein level assessed per 100 ml at 25 mg/kg/day for 15 days. Format: toxicity, organism-based. The note with it: in vivo, 360 h.
Series [6] deals with Mus musculus. As to the kind of experiment: Anticonvulsant activity in Swiss albino mouse assessed as decrease in time of maximum electroshock-induced tonic hind leg extension administered as ip at equimolar dose of phenytoin 30 mins before maximum electroshock seizure stimulation measured after 0.5 hrs (reference value: 15.40 +/- 0.50 sec). The series is classed as functional, Hindlimb.

The test system of series [7] is Mus musculus. In words: Hepatotoxicity in Swiss albino mouse assessed as change in liver SGOT level at 25 mg/kg/day for 15 days. The note with it: in vivo, 360 h. The series is classed as toxicity, organism-based.
Series [8] deals with Mus musculus. In words: Anticonvulsant activity in ip dosed Swiss albino mouse assessed as decrease in time of subcutaneous PTZ-induced clonic hind leg extension administered 30 mins before subcutaneous PTZ challenge measured after 0.5 hrs (reference value: 76.80 +/- 2.41 sec). The series is classed as functional, Hindlimb.

Turning to `CCc1nc2ccc(Br)cc2c(=O)n1-c1nc2ccccc2s1`, the Activity result in series [1] is given as “Non-toxic”; in series [2] it was “Non-toxic”; in series [3] it was “Non-toxic”; in series [5], 1.82 g; in series [7], “Non-toxic”. The Time came out at 91.6 s in series [4] and 7.4 s in series [6].

In the case of `CCOc1cccc2sc(-n3c(CC)nc4ccc(Br)cc4c3=O)nc12`, the Activity entry in series [1] is reported as “Non-toxic”; in series [2], “Non-toxic”; in series [3], “Non-toxic”; in series [5], 1.82 g; in series [7], “Non-toxic”. The Time in series [4] turned out to be 98 s; in series [6], 10.1 s.

Consider `CN1C(=O)CN=C(c2ccccc2)c2cc(Cl)ccc21` [DIAZEPAM], for which the Activity entry in series [1] was “Non-toxic”. The Time in series [8] came to 111.6 s.

Consider `CCc1nc2ccc(Br)cc2c(=O)n1-c1nc2cc(Cl)ccc2s1`, for which the Activity entry in series [1] is on record as “Non-toxic”; in series [2], “Non-toxic”; in series [3] it was “Non-toxic”; in series [5], 1.75 g; in series [7], “Non-toxic”. In addition, the Time in series [4] is on record as 93 s; in series [6], 8.6 s.

On to `CCc1nc2ccc(Br)cc2c(=O)n1-c1nc2cc(OC)ccc2s1`, for which the Time in series [4] is given as 89.8 s; in series [6], 10.6 s.

In the case of `CCc1nc2ccc(Br)cc2c(=O)n1-c1nc2ccc(OC)cc2s1`, the Activity entry in series [1] is “Non-toxic”; in series [2], “Non-toxic”; in series [3] it was “Non-toxic”; in series [5], 1.78 g; in series [7], “Non-toxic”. Further, the figures for the Time in series [4] and in series [6] were 99.45 s and 9.7 s, respectively.

For `CCc1nc2ccc(Br)cc2c(=O)n1-c1nc2c(OC)cccc2s1`, the Activity entry in series [1] is reported as “Non-toxic”; in series [2], “Non-toxic”; in series [3], “Non-toxic”; in series [5], 1.82 g; in series [7] it was “Non-toxic”. Also, the Time is given as 98.12 s in series [4] and 10.2 s in series [6].

As to `CCc1nc2ccc(Br)cc2c(=O)n1-c1nc2c(C)cc(C)cc2s1`, the Time in series [4] turned out to be 91.6 s; in series [6], 11.8 s.

Regarding `CCc1nc2ccc(Br)cc2c(=O)n1-c1nc2c(C)cccc2s1`, the Time is 95.23 s in series [4] and 10.5 s in series [6].

Regarding `CCc1nc2ccc(Br)cc2c(=O)n1-c1nc2ccc([N+](=O)[O-])cc2s1`, the Time in series [4] is given as 91 s; in series [6], 12 s.

For `CCc1nc2ccc(Br)cc2c(=O)n1-c1nc2cc(C)ccc2s1`, the Time in series [4] was found to be 93.2 s; in series [6], 11.2 s.
